Consider 6 molecules from US8759301B2, “Gene fusion targeted therapy” (The Regents of The University of Michigan, priority 2010, dated 2014).

Numbering of substitutions follows the chain as printed. Where two headings read alike, the source gives them in different places. Where a SMILES comes first, the peptide text is derived from it.

The target in data set [1] is T1, ETS domain stretch RALRYYYDK (Arg367 to Lys375 in ERG), R367→K (Homo sapiens, UniProt P11308, R367K).
T1 construct: used a series of overlapping 19 amino acids segments of ETS domain; made in house
T1 sequence (P11308 311-391 R367K): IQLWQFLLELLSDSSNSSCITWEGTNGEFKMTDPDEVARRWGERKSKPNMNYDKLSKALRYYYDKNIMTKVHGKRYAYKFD
The data set is classed as binding. From the text: Interactive phage clones were sequenced and analyzed using bioinformatics approaches to identify consensus peptide sequence. […] The domains within ERG that mediate the binding of isolated phage clones were mapped using a panel of ERG deletion mutants expressed as HaloTag fusion protein. A total of 6 domains, namely N-term, ETS, CAE, PNT, CD, and CTD (Carrere et al., Oncogene, 1998. 16(25): p. 3261-8), were cloned and expressed in TNT SP6 wheat germ system. Without purification, the expression reactions were coated on HaloLink Array system and incubated with individual phage clones. The interaction signal was detected by Cy3-labled anti-M13 antibody, which is specifically directed against the phage capsid protein (FIG. 28). […] Further mapping studies used a series of overlapping 19 amino acids segments of ETS domain specifically localized the binding site to a 9 amino-acids conserved stretch […] (SEQ ID NO. 1) corresponding to the residues Arg^367 to Lys^375 in ERG (FIG. 29). The conserved region of the amino acids specifically involved in peptide binding was then located.

The test system of data set [2] is TMPRSS2-ERG and wild-type ERG transcripts. The format is cell-based. How it is done:
All PCR experiments were performed in triplicates.

Data set [3] relates to RWPE-1 cells transduced with ERG adenovirus. Put plainly: ERG-mediated invasion of RWPE-1 cells transduced with ERG adenovirus. The format is cell-based. The settings on record: TAT-tagged peptides, 2 μM, 48 hours, RWPE-1 with ERG adenovirus. How it is done:
(§1) Invaded cells were stained with crystal violet and photographed.
To investigate the ability of ERG-binding peptides to block ERG-mediated invasion, the prostate cell lines RWPE-1 transduced with ERG or LACZ adenovirus were incubated with TAT-tagged peptides. […] The relative number of invaded cells was also quantified by colorimetric assays.

Data set [4] concerns TMPRSS2 and ERG loci in LNCaP cells.
For data set [5], the system named is TMPRSS2 and ERG loci in DU145 cells.
The subject of data set [6] is TMPRSS2-ERG fusion transcript in LNCaP cells. The settings on record: DHT 10 nM, 12 hours. The method, then:
It was investigated whether stimulation with androgen (e.g. DHT) could create gene fusions by coupling androgen stimulation with an agent that causes DNA double strand breaks. LNCaP cells were hormone depleted, followed by stimulation with DHT (10 nM, 12 hours), irradiation (1 or 3 Gy) and clonal expansion of single cells in 96 well plates using flow sorting. The presence of the TMPRSS2-ERG fusion transcript was determined using quantitative reverse-transcription PCR (QRT-PCR) with both SYBR green and TaqMan assays spanning the chimeric region.

For data set [7], the system named is VCaP. Put plainly: Cell proliferation with TAT-peptide, VCaP. The data set is classed as cell-based. To be noted: FIG. 40. From the text: Standard cell proliferation and apoptosis assays (Chinnaiyan et al., Cell, 1995. 81(4): p. 505-12; Chinnaiyan et al., Proc Natl Acad Sci USA, 2000. 97(4): p. 1754-9; Varambally et al., Nature, 2002. 419(6907): p. 624-9) are used to assess the inhibitory role of peptides in prostate cell proliferation driven by TMPRSS2:ETS fusions, using both the over-expression series and stable-knockdown series.

The test system of data set [8] is VCaP.
Experimental: (§2) Briefly, equal numbers of the indicated cells were seeded onto the basement membrane matrix (EC matrix, Chemicon) present in the insert of a 24-well culture plate, with fetal bovine serum added to the lower chamber as a chemoattractant. After 48 h, non-invading cells and the EC matrix were removed by a cotton swab. Invaded cells were stained with crystal violet and photographed. The inserts were treated with 10% acetic acid and absorbance was measured at 560 nm.
Data set [9] deals with DU145. Put plainly: Cell invasion with TAT-peptides, DU145. The format is cell-based. To be noted: FIG. 39.
From the text: as §1

Data set [10] concerns the target T2, ERG (Homo sapiens, UniProt P11308).
T2 sequence (P11308 1-479): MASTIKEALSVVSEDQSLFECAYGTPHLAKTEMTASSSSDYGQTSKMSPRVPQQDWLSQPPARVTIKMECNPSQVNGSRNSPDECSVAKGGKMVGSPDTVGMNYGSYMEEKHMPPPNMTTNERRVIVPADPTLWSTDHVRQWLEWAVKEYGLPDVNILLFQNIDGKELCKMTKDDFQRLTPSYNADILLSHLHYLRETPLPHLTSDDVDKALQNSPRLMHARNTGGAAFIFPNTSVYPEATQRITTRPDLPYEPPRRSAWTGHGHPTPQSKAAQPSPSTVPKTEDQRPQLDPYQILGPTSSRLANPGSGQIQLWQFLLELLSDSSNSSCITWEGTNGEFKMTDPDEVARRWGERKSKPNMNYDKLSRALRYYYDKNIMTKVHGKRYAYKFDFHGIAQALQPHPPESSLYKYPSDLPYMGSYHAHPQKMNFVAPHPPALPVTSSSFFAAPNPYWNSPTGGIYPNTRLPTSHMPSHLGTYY

Data set [11] concerns the target T3, AR binding to ETS domain (Homo sapiens, UniProt P11308).
T3 sequence (P11308 311-391 limits assumed): T1 sequence (P11308 311-391 R367K) with K57R
Experimental: Beads were eluted by SDS loading buffer and blotted with anti-GST mAb specifically against GST-AR (FIG. 30).
The cDNAs and fragments are cloned into pFN19A vector per manufacturer's protocol. In vitro translated proteins are generated by a wheat germ expression system (Promega) and immobilized onto HaloLink magnetic beads. After washing, the conjugated beads are incubated with GST-AR fusion proteins in the presence or absence of peptides. The bound proteins are analyzed by SDS-PAGE and blotted with anti-GST mAb (Sigma).

The subject of data set [12] is VCaP. Put plainly: Cell invasion with TAT-peptides, VCaP. To be noted: FIG. 39.
Experimental: as §2
Data set [13] concerns VCaP. In words: DNA damage in VCaP with TAT peptides. To be noted: FIG. 42. The data set is classed as cell-based.

For `CC(C)C[C@H](NC(=O)[C@H](CO)NC(=O)CNC(=O)[C@H](Cc1ccccc1)NC(=O)[C@H](CO)NC(=O)[C@@H](N)CC(C)C)C(=O)N1CCC[C@H]1C(=O)O` [LSFGSLP] (H-LSFGSLP-OH), in [1], the “phage peptide binding after single amino acid substitution R367→K” value is recorded as “completely abolished”.
For the molecule “UGG UCA GAG AGA AGC AAU A [wild-type ERG siRNA]”, the TMPRSS2-ERG expression result in data set [2] was “did not affect”.
As to LPPYLFT, the ERG-driven invasion result in data set [3] is reported as “blocked”.
For the molecule `C[C@]12CCC(=O)C[C@@H]1CC[C@@H]1[C@@H]2CC[C@]2(C)[C@@H](O)CC[C@@H]12` [DHT, Dihydrotestosterone], the “proximity between the TMPRSS2 and ERG loci” value in data set [4] is given as “induced proximity”. Besides, the “proximity between TMPRSS2 and ERG” value in [5] is listed as “not observed”. Further, the “clones harboring TMPRSS2-ERG fusion transcripts” value is 2.3% in data set [6] (then 1 Gy irradiation) and 25% in data set [6] (then 3 Gy irradiation).
On to “TAT-LSFGSLP: TAT linked to LSFGSLP (SEQ ID NO: 2) (not fully specified; left off: small tags and cut ends)”, for which, in data set [7], the VCaP proliferation result is on record as “inhibits”. For the same molecule, the “cell invasion driven by ERG” value in [8] is given as “attenuated”. Also, the DU145 invasion result in data set [9] is on record as “not”. Also, the ERG transcription activities entry in data set [10] is reported as “blocked”. For the same molecule, in data set [11], the “ERG interactome (through ETS domain)” value is given as “blocked”. In [12], the VCaP invasion entry is “inhibit”. Also, the “DNA damage in VCaP” value in data set [13] is on record as “inhibit”.
Take “TAT-LPPYLFT: TAT linked to LPPYLFT (SEQ ID NO: 45) (not fully specified; left off: small tags and cut ends)”: the VCaP proliferation entry in [7] is recorded as “inhibited”. Also, in data set [8], the “cell invasion driven by ERG” value is recorded as “attenuated”. For the same molecule, the DU145 invasion entry in data set [9] is recorded as “not”. In addition, the ERG transcription activities result in data set [10] is on record as “blocked”. The “ERG interactome (through ETS domain)” value in [11] is reported as “blocked”. Further, the VCaP invasion entry in data set [12] is “inhibit”.
